In ChEMBL document CHEMBL4831529, “Systematic Development of Peptide Inhibitors Targeting the CXCL12/HMGB1 Interaction” (J Med Chem, 2021):
Values belong to the compound of their own block, whether it stands above or below them. Calls of active or inactive are those of the source. The rule behind the calls is not given here.

Assays:
[1] = molecular target: C-X-C chemokine receptor type 4 (Homo sapiens) (UniProt P61073); assay: Inhibition of human CXCR4-mediated chemotaxis expressed in human monocytes assessed as reduction in CXCL12/HMGB1-induced cell migration at 100 uM; format: functional, cell-based; details: Monocyte
[2] = molecular target: Toll-like receptor 4 (Homo sapiens) (UniProt O00206); assay: Inhibition of HMGB1 binding to TLR4 in human monocytes assessed as reduction in HMGB1-induced IL-6 production at 100 uM by cytometric bead array; format: cell-based; details: Monocyte
[3] = molecular target: Toll-like receptor 4 (Homo sapiens) (UniProt O00206); assay: Inhibition of HMGB1 binding to TLR4 in human monocytes assessed as reduction in HMGB1-induced TNF production at 100 uM by cytometric bead array; format: cell-based; details: Monocyte
[4] = molecular target: C-X-C chemokine receptor type 4 (Homo sapiens) (UniProt P61073); assay: Inhibition of human CXCR4-mediated chemotaxis expressed in mouse 300-19 Pre-B cells assessed as reduction in CXCL12-induced cell migration at 100 uM; format: functional, cell-based
[5] = molecular target: C-X-C chemokine receptor type 4 (Homo sapiens) (UniProt P61073); assay: Inhibition of human CXCR4-mediated chemotaxis expressed in mouse 300-19 Pre-B cells assessed as reduction in CXCL12/HMGB1-induced cell migration at 50 uM; format: functional, cell-based
[6] = molecular target: C-X-C chemokine receptor type 4 (Homo sapiens) (UniProt P61073); assay: Inhibition of human CXCR4-mediated chemotaxis expressed in human monocytes assessed as reduction in CXCL12-induced cell migration at 100 uM; format: functional, cell-based; details: Monocyte
[7] = molecular target: C-X-C chemokine receptor type 4 (Homo sapiens) (UniProt P61073); assay: Inhibition of human CXCR4-mediated chemotaxis expressed in mouse 300-19 Pre-B cells assessed as reduction in CXCL12/HMGB1-induced cell migration at 100 uM; format: functional, cell-based
[8] = molecular target: T1, High mobility group protein B1 (Homo sapiens, UniProt P09429); assay: Binding affinity to full-length N-terminal 6His-tagged HMGB1 (unknown origin) by NMR spectra
T1 sequence (P09429 whole entry): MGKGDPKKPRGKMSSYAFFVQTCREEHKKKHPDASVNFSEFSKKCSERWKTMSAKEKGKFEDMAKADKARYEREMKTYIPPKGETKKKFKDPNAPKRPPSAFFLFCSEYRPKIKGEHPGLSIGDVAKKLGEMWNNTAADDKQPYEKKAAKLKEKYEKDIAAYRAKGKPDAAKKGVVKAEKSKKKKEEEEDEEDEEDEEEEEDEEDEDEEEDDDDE

[9] = molecular target: T1, High mobility group protein B1; assay: Binding affinity to 6His-tagged HMGB1 (unknown origin) incubated for 15 mins by MST analysis
[10] = molecular target: C-X-C chemokine receptor type 4 (Homo sapiens) (UniProt P61073); assay: Inhibition of human CXCR4-mediated chemotaxis expressed in mouse 300-19 Pre-B cells assessed as reduction in CXCL12/HMGB1-induced cell migration at 200 uM; format: functional, cell-based

Chain of C-X-C chemokine receptor type 4 (Homo sapiens) (P61073 whole entry): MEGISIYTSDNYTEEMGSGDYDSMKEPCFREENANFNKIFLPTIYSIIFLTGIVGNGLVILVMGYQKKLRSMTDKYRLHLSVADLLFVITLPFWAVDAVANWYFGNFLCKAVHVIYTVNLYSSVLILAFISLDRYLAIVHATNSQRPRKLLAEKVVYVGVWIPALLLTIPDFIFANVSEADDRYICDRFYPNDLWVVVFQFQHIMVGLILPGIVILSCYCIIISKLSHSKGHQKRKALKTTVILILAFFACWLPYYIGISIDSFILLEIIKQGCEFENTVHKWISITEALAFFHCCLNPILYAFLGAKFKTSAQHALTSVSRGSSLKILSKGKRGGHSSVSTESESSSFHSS
Chain of Toll-like receptor 4 (Homo sapiens) (O00206 whole entry): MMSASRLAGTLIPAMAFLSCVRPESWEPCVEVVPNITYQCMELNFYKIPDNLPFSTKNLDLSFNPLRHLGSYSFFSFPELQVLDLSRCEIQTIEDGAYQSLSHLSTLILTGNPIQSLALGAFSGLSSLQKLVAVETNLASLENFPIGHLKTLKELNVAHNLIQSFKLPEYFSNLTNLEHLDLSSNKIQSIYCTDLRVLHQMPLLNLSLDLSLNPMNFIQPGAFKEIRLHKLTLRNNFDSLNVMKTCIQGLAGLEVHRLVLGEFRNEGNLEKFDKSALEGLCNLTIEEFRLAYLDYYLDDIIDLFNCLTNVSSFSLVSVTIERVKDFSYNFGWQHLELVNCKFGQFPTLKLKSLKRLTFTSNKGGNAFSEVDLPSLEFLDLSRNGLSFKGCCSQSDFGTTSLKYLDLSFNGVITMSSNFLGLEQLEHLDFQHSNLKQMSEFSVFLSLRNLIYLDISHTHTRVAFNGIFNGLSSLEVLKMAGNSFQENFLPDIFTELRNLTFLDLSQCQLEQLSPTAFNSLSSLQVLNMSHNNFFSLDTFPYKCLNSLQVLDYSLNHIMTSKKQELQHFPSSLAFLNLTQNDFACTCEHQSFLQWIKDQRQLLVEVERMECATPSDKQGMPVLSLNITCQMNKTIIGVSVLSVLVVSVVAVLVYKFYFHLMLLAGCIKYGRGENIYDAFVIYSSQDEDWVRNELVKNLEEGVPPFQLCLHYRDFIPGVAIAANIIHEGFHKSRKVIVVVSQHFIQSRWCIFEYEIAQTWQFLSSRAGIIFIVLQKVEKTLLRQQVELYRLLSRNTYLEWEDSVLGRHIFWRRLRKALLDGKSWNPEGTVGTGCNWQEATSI

inhibition [1]: Active | inhibition [2]: inactive | inhibition [3]: inactive | inhibition [4]: inactive | inhibition [5]: 50% | inhibition [6]: inactive | inhibition [7]: Active
Compound: H-GYHYERWIH-OH

inhibition [4]: Active | inhibition [7]: Active
Compound: H-WISNWILMW-OH

Kd [8]: 1600 µM
Compound: O=C(O)c1cc(-c2ccc(F)cc2F)ccc1O [DIFLUNISAL]

Kd ([9]; read-out: Kd): 160 µM
Compound: H-ERWIH-OH

Kd [9]: Not Active
Compound: H-GYHYE-OH

inhibition [4]: Active | inhibition [7]: Active
Compound: H-YHICWYGDY-OH

inhibition [4]: inactive | inhibition [7]: Active
Compound: H-HWTLANWCR-OH

inhibition [10]: Active
Compound: CC1(C)[C@@H](O[C@H]2O[C@H](C(=O)O)[C@@H](O)[C@H](O)[C@H]2O[C@@H]2O[C@H](C(=O)O)[C@@H](O)[C@H](O)[C@H]2O)CC[C@]2(C)[C@H]3C(=O)C=C4[C@@H]5C[C@@](C)(C(=O)O)CC[C@]5(C)CC[C@@]4(C)[C@]3(C)CC[C@@H]12
